Each compound was assayed against NSP14 (Severe acute respiratory syndrome coronavirus 2, UniProt P0DTD1) (assay: NSP14 MTase inhibition assay at 37° C. (MTase-Glo SAH detection)). Conditions: 0.3 nM NSP14, 2.5 μM SAM, 2.5 μM GpppA RNA, 45 min at 37° C.; read-out: Nsp14 Mtase Inh. IC50.
Format: biochemical, SARS-CoV-2

Structure (SMILES) | IC50 [nM]
COc1ncc(N2CC[C@@H](NC(=O)c3cc(S(=O)(=O)c4ccc5[nH]ncc5c4)c(C)n3C)C2)cn1 [A.124] | 0.23

Same assay, conditions: 37° C., 0.3 nM NSP14, 2.5 μM SAM, 2.5 μM GpppA RNA; read-out: Nsp14 Mtase Inh. IC50

Structure (SMILES) | IC50 [nM]
Cc1c(S(=O)(=O)c2ccc3[nH]ncc3c2)cc(C(=O)NCc2cccc3ncn(C4CC4)c23)n1C [B.1] | 0.38
Cc1c(S(=O)(=O)c2cccc(C#N)c2)cc(C(=O)NCc2c(F)ccc3cnn(C)c23)n1C [B.2] | 0.61
Cc1c(S(=O)(=O)c2cccc(C#N)c2)cc(C(=O)NCc2cccc3ncn(C4CC4)c23)n1C [B.3] | 5.3
Cc1c(S(=O)(=O)c2cccc(C#N)c2)cc(C(=O)NCc2cccc3ncn(C)c23)n1C [B.4] | 4.9
Cc1c(S(=O)(=O)c2ccc3c(c2)CC(=O)N3)cc(C(=O)NCc2cccc3cnn(C)c23)n1C [B.5] | 8.7
Cc1c(S(=O)(=O)c2ccc(C(F)(F)F)cc2)cc(C(=O)NCc2cccc3cnn(C)c23)n1C [B.6] | 35
Cc1c(S(=O)(=O)c2ccc(C3CC3)cc2)cc(C(=O)NCc2cccc3cnn(C)c23)n1C [B.7] | 114
Cc1c(S(=O)(=O)c2ccc3c(=O)[nH]cnc3c2)cc(C(=O)NCc2cccc3cnn(C)c23)n1C [B.8] | 71
Cc1c(S(=O)(=O)c2cc(F)c3[nH]ncc3c2)cc(C(=O)NCc2cccc3cnn(C)c23)n1C [B.9] | 0.53
Cc1c(S(=O)(=O)c2ccc3c(c2)CNC3)cc(C(=O)NCc2cccc3cnn(C)c23)n1C [B.10] | 113
Cc1c(S(=O)(=O)c2ccc3[nH]ncc3c2)cc(C(=O)NCc2cccc3ccc(=O)n(C)c23)n1C [B.11] | 2.1
Cc1c(S(=O)(=O)c2ccc3[nH]nc(F)c3c2)cc(C(=O)NCc2cccc3cnn(C)c23)n1C [B.12] | 0.63
Cc1c(S(=O)(=O)c2ccc3[nH]ncc3c2)cc(C(=O)NCc2cccc3c2N(C)C(=O)C3)n1C [B.13] | 0.6
Cc1c(S(=O)(=O)c2cccc(C#N)c2)cc(C(=O)NCc2cccc3cnn(C4CC4)c23)n1C [B.14] | 23.1
Cc1c(S(=O)(=O)c2ccc3[nH]ncc3c2)cc(C(=O)NCc2cccc3c2N(C)C(=O)CC3)n1C [B.15] | 14
Cc1c(S(=O)(=O)c2ccc3[nH]ncc3c2)cc(C(=O)NCc2c(F)ccc3cnn(C4CC4)c23)n1C [B.16] | 0.38
Cc1c(S(=O)(=O)c2cc(F)c3ncccc3c2)cc(C(=O)NCc2cccc3cnn(C)c23)n1C [B.17] | 41.8
Cc1c(S(=O)(=O)c2ccc3[nH]ncc3c2)cc(C(=O)NCc2c(F)ccc3ncn(C4CC4)c23)n1C [B.18] | < 0.15
Cc1c(S(=O)(=O)c2ccc3[nH]ncc3c2)cc(C(=O)NCc2cccnc2N2CCC(F)(F)C2)n1C [B.20] | 0.75
Cc1c(S(=O)(=O)c2ccc3[nH]ncc3c2)cc(C(=O)NCc2c[nH]c(=O)c3ccccc23)n1C [B.21] | 0.54
Cc1c(S(=O)(=O)c2ccc3[nH]ncc3c2)cc(C(=O)NCc2c(F)cccc2F)n1C [B.22] | 0.23
Cc1c(S(=O)(=O)c2ccc3[nH]ncc3c2)cc(C(=O)NCc2nccc3cnn(C)c23)n1C [B.24] | 0.62
Cc1c(S(=O)(=O)c2ccc3[nH]ncc3c2)cc(C(=O)NCc2cccc3c2CCC(=O)N3C)n1C [B.25] | < 0.15
Cc1c(S(=O)(=O)c2ccc3[nH]ncc3c2)cc(C(=O)NCc2cccc3c2N(C)C(=O)C3(F)F)n1C [B.26] | 0.49
Cc1cc(S(=O)(=O)c2cc(C(=O)NCc3c(F)ccc4ncn(C5CC5)c34)n(C)c2C)cc2cn[nH]c12 [B.27] | 0.21
Cc1cc(S(=O)(=O)c2cc(C(=O)NCc3c(F)ccc4cnn(C5CC5)c34)n(C)c2C)cc2cn[nH]c12 [B.28] | 0.24
Cc1c(S(=O)(=O)c2ccc3[nH]nc(C#N)c3c2)cc(C(=O)NCc2cccc3cnn(C)c23)n1C [B.29] | 138
Cc1c(S(=O)(=O)c2cnc3[nH]ncc3c2)cc(C(=O)NCc2cccc3cnn(C)c23)n1C [B.30] | 4.6

Structure (SMILES) | IC50 [nM]
Cc1c(S(=O)(=O)c2ccc3[nH]ncc3c2)cc(C(=O)NCc2cccc3c(F)n[nH]c23)n1C [B.31] | 5.4
Cc1c(S(=O)(=O)c2ccc3[nH]ncc3c2)cc(C(=O)NCc2cccc3c2N(C)C(=O)C32CC2)n1C [B.32] | 0.18
Cc1c(S(=O)(=O)c2ccc3[nH]ncc3c2)cc(C(=O)NCc2cccc3c2ccc(=O)n3C)n1C [B.33] | 0.35
Cc1c(S(=O)(=O)c2ccc3[nH]ncc3c2)cc(C(=O)NCc2cccc3nnn(C)c23)n1C [B.34] | 0.2
Cc1c(S(=O)(=O)c2ccc3[nH]ncc3c2)cc(C(=O)NCc2cccc3c(F)nn(C4CC4)c23)n1C [B.35] | 3.3
Cc1c(S(=O)(=O)c2ccc3[nH]ncc3c2)cc(C(=O)NCc2ccc(F)c3cnn(C)c23)n1C [B.36] | 0.41
Cc1c(S(=O)(=O)c2cnc3[nH]ncc3c2)cc(C(=O)NCc2cccc3cnn(C4CC4)c23)n1C [B.37] | 10
Cc1c(S(=O)(=O)c2ccc3[nH]nc(F)c3c2)cc(C(=O)NCc2cncnc2N2CCC(F)(F)C2)n1C [B.38] | 0.56
Cc1c(S(=O)(=O)c2ccc3[nH]nc(F)c3c2)cc(C(=O)NCc2ccccc2N2CCC(F)(F)C2)n1C [B.39] | 5.2
Cc1c(S(=O)(=O)c2ccc3[nH]ncc3c2)cc(C(=O)NCc2cncnc2N2CCC(F)(F)C2)n1C [B.40] | 0.22
Cc1c(S(=O)(=O)c2cc(C3CC3)c3[nH]ncc3c2)cc(C(=O)NCc2cccc3cnn(C4CC4)c23)n1C [B.41] | 50
Cc1c(S(=O)(=O)c2cc3cn[nH]c3cn2)cc(C(=O)NCc2cccc3cnn(C4CC4)c23)n1C [B.42] | 9.3
Cc1c(S(=O)(=O)c2ccc3[nH]ncc3c2)cc(C(=O)NCc2c(F)ccc3nnn(C)c23)n1C [B.43] | < 0.15
Cc1c(S(=O)(=O)c2ccc3[nH]ncc3c2)cc(C(=O)NCc2cccc3c(F)nn(C)c23)n1C [B.44] | 0.24
Cc1c(S(=O)(=O)c2cc(CO)c3[nH]ncc3c2)cc(C(=O)NCc2cccc3cnn(C4CC4)c23)n1C [B.45] | 4
Cc1c(S(=O)(=O)c2ccc3[nH]nc(F)c3c2)cc(C(=O)NCc2c(F)ccc3cnn(C4CC4)c23)n1C [B.46] | 0.53
Cc1c(S(=O)(=O)c2ccc3c(cnn3C)c2)cc(C(=O)NCc2cccnc2N2CCC(C(=O)O)C2)n1C (centres unmarked) [B.47] | 1.7
Cc1c(S(=O)(=O)c2ccc3c(cnn3C)c2)cc(C(=O)NCc2c(F)ccnc2N2CCC(C(=O)O)C2)n1C (centres unmarked) [B.48] | 0.15
Cc1c(S(=O)(=O)c2ccc3[nH]ncc3c2)cc(C(=O)NCc2cncc3cnn(C)c23)n1C [B.49] | 0.49
Cc1c(S(=O)(=O)c2ccc3[nH]ncc3n2)cc(C(=O)NCc2cccc3cnn(C4CC4)c23)n1C [B.50] | 51
Cc1c(S(=O)(=O)c2cc(Cl)c3[nH]ncc3c2)cc(C(=O)NCc2cccc3cnn(C4CC4)c23)n1C [B.51] | 0.22
Cc1c(S(=O)(=O)c2ccc3[nH]ncc3c2)cc(C(=O)NCc2c(F)ccc3c2N(C)C(=O)C3)n1C [B.52] | 0.15
Cc1c(S(=O)(=O)c2ccc3[nH]ncc3c2)cc(C(=O)NCc2cccnc2C(F)(F)F)n1C [B.53] | 7
Cc1c(S(=O)(=O)c2ccc3[nH]ncc3c2)cc(C(=O)NC2CCc3cc(C#N)ccc32)n1C (centres unmarked) [B.54] | 2.3
Cc1c(S(=O)(=O)c2ccc3[nH]ncc3c2)cc(C(=O)NC2CCc3ncccc32)n1C (centres unmarked) [B.55] | 5.6
Cc1c(S(=O)(=O)c2ccc3[nH]ncc3c2)cc(C(=O)NCc2ccccc2S(C)(=O)=O)n1C [B.56] | 2.9
Cc1c(S(=O)(=O)c2ccc3[nH]ncc3c2)cc(C(=O)NCc2c(F)ccc3c2CCCO3)n1C [B.57] | < 0.15
